The values below are quoted from earlier work in publication PMC7797289 (Drug Design, Development and Therapy, 2021).

A word on the Ki: it is a measure of affinity in units of concentration, obtained from inhibition or displacement.

For data set [1], the system named is breast cancer metastasis. To be noted: in vivo test.
The subject of data set [2] is lung cancer. To be noted: lung cancer animal model.
Data set [3] deals with uPA. To be noted: read-out: Ki (inhibitory constant); uPA inhibitor.

In the case of `CCCNC(=O)[C@H]1O[C@@H]1C(=O)N[C@H](C(=O)N1CCC[C@H]1C(=O)O)[C@@H](C)CC` [CA-074], in data set [1], the breast cancer metastasis entry was “reduced breast cancer metastasis”.

Consider `N=C(N)c1ccc(CNC(=O)[C@H](CO)NC(=O)[C@@H](CO)NS(=O)(=O)Cc2ccccc2)cc1` [CJ-463, benzylsulfonyl-D-Ser-Ser-4- amidinobenzylamide], for which the anti-tumor efficacy result in data set [2] was “good anti-tumor efficacy”. Besides, in data set [3], the inhibition constant (Ki) was 20 nM.

On to `CN(C)C(=O)[C@H](Cc1ccccc1)NC(=O)[C@H]1O[C@@H]1C(=O)NCCc1ccccn1` [CLIK-148], for which the breast cancer metastasis result in data set [1] was “reduced breast cancer metastasis”.
